How the values were obtained:
EP4 receptor = molecular target: T1, EP4 receptor (Homo sapiens, UniProt P35408); experiment: hEP4 cAMP assay (BT549 breast cancer cells, HTRF cAMP, PGE2 stimulation); format: cell-based; conditions: antagonistic activity, PGE2 6 nM (EC80)
T1 construct: BT549 breast cancer cells, express high endogenous EP4 levels and very low EP2 levels; host or cells: BT549 breast cancer cells
Summary of the method: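 BT549 cells, with endogenous EP4 and very low EP2, were preincubated 45 min at room temperature with compound in HBSS/HEPES/BSA buffer with 2 mM IBMX. They were then stimulated 30 min with 6 nM PGE2 (EC80). cAMP was measured by HTRF competitive immunoassay against a calibrator; IC50 from duplicate dose-response as % of DMSO control.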

EP2 receptor = molecular target: T2, EP2 receptor (Homo sapiens, UniProt P43116); experiment: hEP2 cAMP assay (SF295 glioblastoma cells, HTRF cAMP, PGE2 stimulation); format: cell-based; conditions: antagonistic activity
T2 construct: SF295 glioblastoma cells express high endogenous EP2 and no EP4; host or cells: SF295 glioblastoma cells
T2 sequence (P43116 whole entry): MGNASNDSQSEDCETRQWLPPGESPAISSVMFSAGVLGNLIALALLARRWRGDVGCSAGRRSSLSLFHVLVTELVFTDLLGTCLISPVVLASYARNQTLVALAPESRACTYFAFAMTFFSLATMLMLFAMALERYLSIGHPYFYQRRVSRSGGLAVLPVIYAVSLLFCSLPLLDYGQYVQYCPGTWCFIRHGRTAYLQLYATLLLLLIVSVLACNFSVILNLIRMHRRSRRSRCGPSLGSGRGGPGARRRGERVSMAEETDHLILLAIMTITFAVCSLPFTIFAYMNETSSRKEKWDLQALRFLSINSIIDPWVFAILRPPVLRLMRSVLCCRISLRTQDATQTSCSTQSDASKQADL
Summary of the method: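 SF295 glioblastoma cells with endogenous EP2 and no EP4, in HBSS/HEPES/BSA with 2 mM IBMX, pre-incubated 45 min at room temperature with compound, then stimulated 30 min with 75 nM PGE2 (EC80). cAMP measured by HTRF; IC50 fitted from duplicate % cAMP versus DMSO control.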

T1 sequence (P35408 whole entry): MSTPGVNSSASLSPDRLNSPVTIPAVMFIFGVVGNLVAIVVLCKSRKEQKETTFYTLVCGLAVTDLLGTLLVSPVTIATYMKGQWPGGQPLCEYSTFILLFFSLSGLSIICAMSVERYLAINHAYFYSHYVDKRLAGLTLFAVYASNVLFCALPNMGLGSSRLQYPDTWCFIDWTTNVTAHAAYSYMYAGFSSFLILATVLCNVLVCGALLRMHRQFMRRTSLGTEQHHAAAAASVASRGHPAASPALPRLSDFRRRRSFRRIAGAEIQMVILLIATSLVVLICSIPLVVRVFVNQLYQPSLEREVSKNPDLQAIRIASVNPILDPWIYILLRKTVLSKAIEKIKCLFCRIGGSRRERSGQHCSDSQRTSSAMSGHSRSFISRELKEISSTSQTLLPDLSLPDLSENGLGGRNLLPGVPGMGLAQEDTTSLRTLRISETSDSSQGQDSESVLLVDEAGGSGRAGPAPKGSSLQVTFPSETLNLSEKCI

COc1ccc(Cl)c2c(CCNc3cc(-c4ccc(C(=O)O)c(SC)c4)ncn3)c(C)sc12 [Example 15, 4-{6-[2-(4-Chloro-7-methoxy-2-methyl-benzo[b]thiophen-3-yl)-ethylamino]-pyrimidin-4-yl}-2-methylsulfanyl-benzoic acid]
IC50 (EP4 receptor): 134 nM
IC50 (EP2 receptor): 21 nM

CCOc1cc(-c2cc(NCCc3c(C)oc4c(OC)cc(Cl)cc34)ncn2)sc1C(=O)O [Example 38, 5-{6-[2-(5-Chloro-7-methoxy-2-methyl-benzofuran-3-yl)-ethylamino]-pyrimidin-4-yl}-3-ethoxy-thiophene-2-carboxylic acid]
IC50 (EP4 receptor): 80 nM
IC50 (EP2 receptor): 12 nM

CCOc1cc(-c2cc(NCCc3c(C)sc4c(C)ccc(F)c34)ncn2)sc1C(=O)O [Example 25, 3-Ethoxy-5-{6-[2-(4-fluoro-2,7-dimethyl-benzo[b]thiophen-3-yl)-ethylamino]-pyrimidin-4-yl}-thiophene-2-carboxylic acid]
IC50 (EP4 receptor): 1 nM
IC50 (EP2 receptor): 8 nM

CCOc1cc(-c2cc(NCCc3c(C)oc4c(C)cc(Cl)cc34)ncn2)ccc1C(=O)O [Example 64, 4-{6-[2-(5-Chloro-2,7-dimethyl-benzofuran-3-yl)-ethylamino]-pyrimidin-4-yl}-2-ethoxy-benzoic acid]
IC50 (EP4 receptor): 546 nM
IC50 (EP2 receptor): 7 nM

CCOc1cc(-c2cc(NCCc3c(C)oc4c(Cl)cccc34)ncn2)ccc1C(=O)O [Example 68, 4-{6-[2-(7-Chloro-2-methyl-benzofuran-3-yl)-ethylamino]-pyrimidin-4-yl}-2-ethoxy-benzoic acid]
IC50 (EP4 receptor): 714 nM
IC50 (EP2 receptor): 39 nM

Cc1sc2c(C)cc(F)cc2c1CCNc1cc(-c2ccc(CC(=O)O)c(OC3CC3)c2)ncn1 [Example 196, (2-Cyclopropoxy-4-{6-[2-(5-fluoro-2,7-dimethyl-benzo[b]thiophen-3-yl)-ethylamino]-pyrimidin-4-yl}-phenyl)-acetic acid]
IC50 (EP4 receptor): 100 nM
IC50 (EP2 receptor): 50 nM

CCOc1cc(-c2cc(NCCc3c(C)oc4c(OC)cc(Cl)cc34)ncn2)ccc1C(=O)O [Example 70, 4-{6-[2-(5-Chloro-7-methoxy-2-methyl-benzofuran-3-yl)-ethylamino]-pyrimidin-4-yl}-2-ethoxy-benzoic acid]
IC50 (EP4 receptor): 985 nM
IC50 (EP2 receptor): 80 nM

CCOc1cc(-c2cc(NCCc3c(C)oc4c(Cl)cccc34)ncn2)sc1C(=O)O [Example 35, 5-{6-[2-(7-Chloro-2-methyl-benzofuran-3-yl)-ethylamino]-pyrimidin-4-yl}-3-ethoxy-thiophene-2-carboxylic acid]
IC50 (EP4 receptor): 36 nM
IC50 (EP2 receptor): 2 nM

CCc1cc(-c2cc(NCCc3c(C)sc4c(C)cc(F)cc34)ncn2)cc(C)c1CC(=O)O [Example 194, (2-Ethyl-4-{6-[2-(5-fluoro-2,7-dimethyl-benzo[b]thiophen-3-yl)-ethylamino]-pyrimidin-4-yl}-6-methyl-phenyl)-acetic acid]
IC50 (EP4 receptor): 71 nM
IC50 (EP2 receptor): 326 nM

Cc1sc2c(C)cccc2c1CCNc1cc(-c2ccc(C(=O)O)c(SC(C)C)c2)ncn1 [Example 90, 4-{6-[2-(2,7-Dimethyl-benzo[b]thiophen-3-yl)-ethylamino]-pyrimidin-4-yl}-2-isopropylsulfanyl-benzoic acid]
IC50 (EP4 receptor): 338 nM
IC50 (EP2 receptor): 35 nM

CSc1cc(-c2cc(NCCc3c(C)sc4c(C)cccc34)ncn2)ccc1C(=O)O [Example 14, 4-{6-[2-(2,7-Dimethyl-benzo[b]thiophen-3-yl)-ethylamino]-pyrimidin-4-yl}-2-methylsulfanyl-benzoic acid]
IC50 (EP4 receptor): 105 nM
IC50 (EP2 receptor): 6 nM

CCOc1cc(-c2cc(NCCc3c(Cl)sc4c(C)cc(F)cc34)ncn2)ccc1C(=O)O [Example 59, 4-{6-[2-(2-Chloro-5-fluoro-7-methyl-benzo[b]thiophen-3-yl)-ethylamino]-pyrimidin-4-yl}-2-ethoxy-benzoic acid]
IC50 (EP4 receptor): 285 nM
IC50 (EP2 receptor): 12 nM

CCOc1cc(-c2cc(NCCc3c(C)sc4c(C)ccc(Cl)c34)ncn2)sc1C(=O)O [Example 29, 5-{6-[2-(4-Chloro-2,7-dimethyl-benzo[b]thiophen-3-yl)-ethylamino]-pyrimidin-4-yl}-3-ethoxy-thiophene-2-carboxylic acid]
IC50 (EP4 receptor): 9 nM
IC50 (EP2 receptor): 14 nM

CCOc1cc(-c2cc(NCCc3c(Cl)sc4ccccc34)ncn2)ccc1C(=O)O [Example 75, 4-{6-[2-(2-chloro-benzo[b]thiophen-3-yl)-ethylamino]-pyrimidin-4-yl}-2-ethoxy-benzoic acid]
IC50 (EP4 receptor): 1160 nM
IC50 (EP2 receptor): 9 nM

Cc1sc2c(C)cc(F)cc2c1CCNc1cc(-c2ccc(C(=O)O)c(OC3CC3)c2)ncn1 [Example 195, 2-Cyclopropoxy-4-{6-[2-(5-fluoro-2,7-dimethyl-benzo[b]thiophen-3-yl)-ethylamino]-pyrimidin-4-yl}-benzoic acid]
IC50 (EP4 receptor): 48 nM
IC50 (EP2 receptor): 6 nM

CCSc1cc(-c2cc(NCCc3c(C)sc4c(C)cccc34)ncn2)ccc1C(=O)O [Example 42, 4-{6-[2-(2,7-Dimethyl-benzo[b]thiophen-3-yl)-ethylamino]-pyrimidin-4-yl}-2-ethylsulfanyl-benzoic acid]
IC50 (EP4 receptor): 224 nM
IC50 (EP2 receptor): 14 nM

Cc1sc2c(C)cc(F)cc2c1CCNc1cc(-c2cc3c(C(=O)O)cccc3[nH]2)ncn1 [Example 82, 2-{6-[2-(5-Fluoro-2,7-dimethyl-benzo[b]thiophen-3-yl)-ethylamino]-pyrimidin-4-yl}-1H-indole-4-carboxylic acid]
IC50 (EP4 receptor): 138 nM
IC50 (EP2 receptor): 21 nM

CSc1cc(-c2cc(NCCc3c(C)sc4ccccc34)ncn2)ccc1C(=O)O [Example 24, 4-{6-[2-(2-Methyl-benzo[b]thiophen-3-yl)-ethylamino]-pyrimidin-4-yl}-2-methylsulfanyl-benzoic acid]
IC50 (EP4 receptor): 795 nM
IC50 (EP2 receptor): 4 nM

CCOc1cc(-c2cc(NCCc3c(C)sc4c(OC)ccc(Cl)c34)ncn2)sc1C(=O)O [Example 30, 5-{6-[2-(4-Chloro-7-methoxy-2-methyl-benzo[b]thiophen-3-yl)-ethylamino]-pyrimidin-4-yl}-3-ethoxy-thiophene-2-carboxylic acid]
IC50 (EP4 receptor): 11 nM
IC50 (EP2 receptor): 8 nM

CCOc1cc(-c2cc(NCCc3c(C)sc4c(OC)ccc(F)c34)ncn2)sc1C(=O)O [Example 28, 3-Ethoxy-5-{6-[2-(4-fluoro-7-methoxy-2-methyl-benzo[b]thiophen-3-yl)-ethylamino]-pyrimidin-4-yl}-thiophene-2-carboxylic acid]
IC50 (EP4 receptor): 5 nM
IC50 (EP2 receptor): 11 nM

CCOc1cc(-c2cc(NCCc3c(C)oc4c(C)cc(F)cc34)ncn2)ccc1C(=O)O [Example 69, 2-Ethoxy-4-{6-[2-(5-fluoro-2,7-dimethyl-benzofuran-3-yl)-ethylamino]-pyrimidin-4-yl}-benzoic acid]
IC50 (EP4 receptor): 760 nM
IC50 (EP2 receptor): 74 nM

Cc1sc2c(C)cc(F)cc2c1CCNc1cc(-c2cc(C(F)(F)F)c(C(=O)O)s2)ncn1 [Example 46, 5-{6-[2-(5-Fluoro-2,7-dimethyl-benzo[b]thiophen-3-yl)-ethylamino]-pyrimidin-4-yl}-3-trifluoromethyl-thiophene-2-carboxylic acid]
IC50 (EP4 receptor): 30 nM
IC50 (EP2 receptor): 31 nM

From patent US11325899B2, “Benzofurane and benzothiophene derivatives as PGE2 receptor modulators” (IDORSIA PHARMACEUTICALS LTD, priority 2017, dated 2022)
